Measured values reported in US20040186274A1, “Methylation of histone h4 at arginine 3” (priority 2001, published 2004).

Test system: H4-Arg 3 methylation in HeLa cells
Test: TSA treatment of HeLa cells, methylation state of H4-Arg 3 in isolated core histones
Assay type: cell-based, human
Details: twelve hours after TSA treatment, hyperacetylated H4
Description: To determine whether this inhibition occurs in vivo, HeLa cells were treated with a histone deacetylase inhibitor, Tricostatin A (TSA), to induce hyperacetylation. Twelve hours after TSA treatment, core histones were isolated, and the methylation state of H4-Arg 3 was analyzed. […] Therefore, hyperacetylation on lysine residues correlates with hypomethylation of H4 Arg 3.

CC(/C=C/C(=O)NO)=C\[C@@H](C)C(=O)c1ccc(N(C)C)cc1 [Tricostatin A]
H4 Arg 3 methylation level: almost undetectable
